# Reference: article PMC4686643 (Frontiers in Molecular Neuroscience, 2015)
# Like-named read-outs stand apart in the source and are kept apart here. Peptide text beside a SMILES is read from it. * marks the point of attachment. Cbz = O=C(OCc1ccccc1)*
# What was measured:
# [1] = test system: GlyR α1 T162M protein in HEK293 cells; experiment: Protein degradation analysis on whole cell lysates (Western blot) with proteasome or lysosome inhibitors; assay type: cell-based, human; settings: for GlyR protein level after lysosomal block: leupeptin 200 μg/mL
# Experimental: (§1) HEK293 cells transiently expressing GlyR α1 wt or α1 variants were incubated under standard growth conditions with proteasome or lysosome inhibitors for specific time periods (all inhibitors have been obtained from Sigma-Aldrich, St. Louis, MO, USA). Cells were incubated with 1 μM of MG132 for 1, 2, and 4 h. The lysosome inhibitor leupeptin (200 μg/mL) was incubated for 6, 12, and 24 h together with the transfected cells.
# (§2) At each time point, media was aspirated and cells were washed twice with PBS followed by incubation with CytoBuster Protein Extraction Reagent (Merck Millipore, Darmstadt, Germany) supplemented with protease inhibitor for 5 min at room temperature. The resulting cell suspension was centrifuged for 5 min at 16.000 g and 4°C resulting in a supernatant containing solubilized proteins.
# (§3) Western Blot Analysis—For SDS-PAGE, 11% polyacrylamide gels were freshly prepared, followed by Western blot on nitrocellulose membranes (GE Healthcare, Freiburg, Germany). Membranes were blocked for 1 h with 5% BSA in TBS-T (TBS with 1% Tween 20). Primary antibodies were incubated overnight at 4°C. GlyR α1 wt and GlyR mutants were detected with the pan-α antibody MAb4a (Synaptic Systems, Göttingen, Germany), recognizing an epitope in the N-terminus of the GlyRs (residues 96–105). In biotinylation experiments, cadherin was chosen as loading control detected by the pan-Cadherin antibody (Cell Signaling Technology, Danvers, MA, USA). For lysate analysis, GAPDH served as a loading control (Calbiochem, Darmstadt, Germany). Signals were detected using the ECLplus system (GE Healthcare, Freiburg, Germany).
# [2] = test system: GlyR α1 wt protein in HEK293 cells; experiment: as above; assay type: cell-based, human
# Experimental: as §1, §2, §3
# GlyR α1 T162 mutants = settings: glycine 3–10 mM
# Experimental: (§4) HEK293 cells were transiently transfected using a modified calcium-phosphate precipitation method, were a mixture of plasmid DNA, CaCl2, and 2x HBS buffer (50 mM HEPES, 12 mM glucose, 10 mM KCl, 280 mM NaCl, 1.5 mM Na2HPO4) was applied onto the cells.
# (§5) Maximal current amplifications (Imax) were measured by the patch clamp technique in a whole-cell configuration mode. Current signals were amplified with an EPC-9 amplifier (HEKA, Lambrecht, Germany). […] The extracellular buffer consisted of 137 mM NaCl, 5.4 mM KCl, 1.8 mM CaCl2, 1 mM MgCl2, […], 10 mM HEPES, with a pH adjusted to 7.4 with NaOH. The internal buffer was 120 mM CsCl, 20 mM N(Et)4Cl, 1 mM CaCl2, 3 mM MgCl2, 11 mM EGTA, 10 mM HEPES with a pH adjusted to 7.4 with CsOH. Recording pipettes were fabricated from borosilicate capillaries with an open resistance of about 4 MΩ. Current responses were measured at a holding potential of −60 mV. All experiments were carried out at room temperature. Error bars refer to S.E.M. values.
# GlyR α1 T162D = GlyR α1 T162D (Homo sapiens, UniProt P23415, T190D)
# Experimental: as §4, §5
# GlyR α1 G160S = GlyR α1 G160S (Homo sapiens, UniProt P23415, G188S); settings: 100 μM glycine
# Experimental: as §4, §5
# GlyR α1 G160R = GlyR α1 G160R (Homo sapiens, UniProt P23415, G188R); settings: 100 μM glycine
# Experimental: as §4, §5
# GlyR α1 T162M = GlyR α1 T162M (Homo sapiens, UniProt P23415, T190M); settings: 100 μM glycine
# Experimental: as §4, §5
# GlyR α1 T162A = GlyR α1 T162A (Homo sapiens, UniProt P23415, T190A); settings: 100 μM glycine
# Experimental: as §4, §5
# GlyR α1 G160A = GlyR α1 G160A (Homo sapiens, UniProt P23415, G188A); settings: 100 μM glycine
# Experimental: as §4, §5
# GlyR α1 wt = GlyR α1 wt (Homo sapiens, UniProt P23415); settings: 100 μM glycine
# Experimental: as §4, §5
# GlyR α1 T162N = GlyR α1 T162N (Homo sapiens, UniProt P23415, T190N); settings: 100 μM glycine
# Experimental: as §4, §5
# GlyR α1 T162P = GlyR α1 T162P (Homo sapiens, UniProt P23415, T190P); settings: 100 μM glycine
# Experimental: as §4, §5
# Chain of GlyR α1 T162D (P23415 29-457 T190D): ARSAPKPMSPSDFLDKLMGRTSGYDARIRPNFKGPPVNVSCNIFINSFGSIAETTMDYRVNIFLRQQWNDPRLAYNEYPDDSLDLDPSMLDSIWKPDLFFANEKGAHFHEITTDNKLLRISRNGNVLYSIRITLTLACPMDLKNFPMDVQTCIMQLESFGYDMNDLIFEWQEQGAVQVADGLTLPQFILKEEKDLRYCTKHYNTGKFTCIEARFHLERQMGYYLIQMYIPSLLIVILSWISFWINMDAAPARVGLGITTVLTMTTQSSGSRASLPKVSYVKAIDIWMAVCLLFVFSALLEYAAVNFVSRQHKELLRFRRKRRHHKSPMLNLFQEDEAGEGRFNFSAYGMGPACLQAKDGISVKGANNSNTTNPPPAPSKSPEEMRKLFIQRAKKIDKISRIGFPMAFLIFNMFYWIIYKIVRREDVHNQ
# Chain of GlyR α1 T162N (P23415 29-457 T190N): as the sequence (P23415 29-457 T190D) above, with D162N counted along it
# Chain of GlyR α1 wt (P23415 29-457): as the sequence (P23415 29-457 T190D) above, with D162T counted along it
# Chain of GlyR α1 G160R (P23415 29-457 G188R): as the sequence (P23415 29-457 T190D) above, with G160R, D162T counted along it
# Chain of GlyR α1 T162P (P23415 29-457 T190P): as the sequence (P23415 29-457 T190D) above, with D162P counted along it
# Chain of GlyR α1 T162M (P23415 29-457 T190M): as the sequence (P23415 29-457 T190D) above, with D162M counted along it
# Chain of GlyR α1 G160S (P23415 29-457 G188S): as the sequence (P23415 29-457 T190D) above, with G160S, D162T counted along it
# Chain of GlyR α1 G160A (P23415 29-457 G188A): as the sequence (P23415 29-457 T190D) above, with G160A, D162T counted along it
# Chain of GlyR α1 T162A (P23415 29-457 T190A): as the sequence (P23415 29-457 T190D) above, with D162A counted along it
structure (smiles),measurement,setting,value
CC(=O)N[C@@H](CC(C)C)C(=O)N[C@@H](CC(C)C)C(=O)N[C@H](C=O)CCCNC(=N)N [leupeptin],GlyR protein level after lysosomal block,[1]; 6 h,did not show any differences
same,GlyR protein level after lysosomal block,"[1]; 12 h, in contrast to wt",reduced protein levels
same,GlyR protein level after lysosomal block,"[2]; leupeptin 200 μg/mL, 12 h",accumulations
NCC(=O)O [glycine],functionality compared to wt receptors,GlyR α1 T162 mutants,indistinguishable from wt receptors
same,"Irel current, % of wt currents","GlyR α1 T162D; T162D, 100 μM glycine, measured in two out of five cells",less than 1%
same,whole cell maximal currents compared to wt,"GlyR α1 T162D; T162D, saturating glycine 10 mM",indistinguishable from GlyR α1 wt
same,Imax ± SEM,"GlyR α1 T162D; α1 T162D, 100 μM glycine",10 ± 6 pA
same,"Irel current, % of the wt current",GlyR α1 G160S; G160S,68 ± 22%
same,Imax ± SEM,GlyR α1 G160S; α1 G160S,1061 ± 359 pA
same,"Irel current, % of the wt current",GlyR α1 G160R; G160R,69 ± 10%
same,Imax ± SEM,GlyR α1 G160R; α1 G160R,1089 ± 167 pA
same,"Irel current, % of I100μM compared to wt",GlyR α1 T162M; T162M,11 ± 5%
same,Imax ± SEM,GlyR α1 T162M; α1 T162M,309 ± 154 pA
same,"Irel current, % of maximum current of wt",GlyR α1 T162A; T162A,4 ± 1%
same,Imax ± SEM,GlyR α1 T162A; α1 T162A,148 ± 45 pA
same,"Irel current, % of the wt current",GlyR α1 G160A; G160A,92 ± 12%
same,Imax ± SEM,GlyR α1 G160A; α1 G160A,1453 ± 197 pA
same,Imax ± SEM,GlyR α1 wt; wt control of the G160 series,1571 ± 260 pA
same,Imax ± SEM,GlyR α1 wt; wt control of the T162 series,2916 ± 371 pA
same,"Irel current, % of the wt current",GlyR α1 T162N; T162N,13 ± 3%
same,reduction of the wt response,GlyR α1 T162N; T162N,85%
same,Imax ± SEM,GlyR α1 T162N; α1 T162N,447 ± 96 pA
same,"Irel current, % of the wt current",GlyR α1 T162P; T162P,29 ± 10%
same,Imax ± SEM,GlyR α1 T162P; α1 T162P,832 ± 300 pA
CC(C)C[C@@H](C=O)NC(=O)[C@H](CC(C)C)NC(=O)[C@H](CC(C)C)NC(=O)OCc1ccccc1 [MG132] (Cbz-Leu-Leu-Leu-aldehyde),GlyR protein level after proteasomal block,"[1]; 1 μM MG132, 2 h, compared to wt",significant increase
same,GlyR protein level after proteasomal block,"[2]; 1 μM MG132, 2 h",not affected
